Data published in EP4616854A1, “TREATMENT OF MUSCLE SARCOPENIA” (Molius Saglik Teknolojileri Anonim Sirketi, priority 2024, dated 2025).
“Also recorded” adds a separate entry of the source. Like-named read-outs stand apart in the source and are kept apart here. Where a SMILES comes first, the peptide text is derived from it. The star is where a group is joined. Cbz = O=C(OCc1ccccc1)*

Assays:
C2C12 myoblasts = assay: Differentiation of C2C12 myoblasts to myotubes under drug treatment, without ceramide; format: cell-based, mouse; settings: for ability to facilitate myotube differentiation without the presence of ceramide: C2C12 cells not treated with C2-ceramide, Fig. 15
Procedure: The C2C12 cells (C2C12 mouse C3H muscle myoblast purchased from Sigma) were maintained in modified Eagle's medium (DMEM) with 10 % fetal bovine serum (FBS) and 1 % penicillin/streptomycin (P/S) solution in a humidified incubator with 5 % CO2 at 37 °C. […] […] Then, the medium was changed twice, at two-day intervals, with a differentiation medium (DMEM with 2% FBS and 1% P/S) with drug candidates to differentiate myoblasts into myotubes. […] Cell viability was measured spectrophotometrically by Cell Counting kit-8. The expression level of target proteins (ANXA2, CLMP, Cyc1, and SDHB), myogenic markers (MyoG and MyH3) and α-Tubulin (internal control) were detected using Western blots. All experiments were performed with 3 replicates.

[1] = tested on: C2-ceramide treated C2C12 cell line; assay: In vitro sarcopenia model (Example 1): myotube phenotype and MyH3 immunofluorescence; format: cell-based, mouse; settings: for MyH3 intensity compared to the control group: mean brightness of MyH3 staining, Fig. 5B
Procedure: (§1) The C2C12 cells (C2C12 mouse C3H muscle myoblast purchased from Sigma) were maintained in modified Eagle's medium (DMEM) with 10 % fetal bovine serum (FBS) and 1 % penicillin/streptomycin (P/S) solution in a humidified incubator with 5 % CO2 at 37 °C. 40 µM C2-ceramide was used for developing an in vitro model of sarcopenia in the C2C12 cell line, i.e., in vitro sarcopenia model. One day after 300×10^3 cells were seeded per well in a 6-well plate, N-acetyl-D-sphingosine (C2-ceramide) and the drug candidates (dissolved in DMSO) were administered in the maintenance condition (DMEM with 10 % FBS and 1 % P/S) for two days. Then, the medium was changed twice, at two-day intervals, with a differentiation medium (DMEM with 2% FBS and 1% P/S) with drug candidates to differentiate myoblasts into myotubes. Furthermore, siRNAs for Anxa2 and Clmp and overexpression plasmids for Cyc1 and Sdhb were transfected into the cells to examine the effect of the target proteins on the in vitro sarcopenia model. Cell viability was measured spectrophotometrically by Cell Counting kit-8. The expression level of target proteins (ANXA2, CLMP, Cyc1, and SDHB), myogenic markers (MyoG and MyH3) and α-Tubulin (internal control) were detected using Western blots. All experiments were performed with 3 replicates.
The cells were, once again, washed 3 times in PBS and then permeabilized in 0.1 % TritonX-100 for 15 min at room temperature. The cells were then incubated for 1 h in 2 % bovine serum albumin (BSA) solution followed by overnight incubation in anti-Myosin/MyH3 diluted in 0.1 % BSA at 4 °C. Primary antibody solution was washed away with PBS, then incubated in fluorescent dye-labelled secondary antibody diluted in 0.1 % BSA for 45 min at room temperature protected from light. Finally, the samples were washed 3 times with 1xPBS-T and mounted with DAPI mount putted cover glass on the cells.
The cell brightness was measured by ImageJ software (NIH). For each experiment condition, three different areas were photographed with same area size (5038848 by ImageJ), the mean brightness of each image was obtained for statistical analysis. The t test was used to check the statistical differences between any two experiment conditions.

[2] = tested on: C2-ceramide treated C2C12 cell line; assay: In vitro sarcopenia model (Example 1): Western blot of target proteins and myogenic markers; format: cell-based, mouse
Procedure: as §1
The cells were washed with PBS and lysed with CelLytic M (C2978, Sigma-Aldrich) lysis buffer containing protease inhibitors. The cell lysates were centrifuged at 12 000 rpm for 5 min and supernatants were collected. A protein assay solution (Bio-Rad) was used for the determination of protein concentration. The absorbance of the proteins was measured spectrophotometrically at 595 nm by microplate reader (Hidex Sense Beta Plus). Protein electrophoresis was performed using Mini-PROTEAN® TGXTM Precast Gels (Bio-Rad) and the separated proteins were transferred to a Trans-Blot Turbo Mini 0.2 um PVDF Transfer Packs membrane (Bio-Rad) by using Trans-Blot® TurboTM Transfer System (Bio-Rad). The membrane was blocked with 5 % skim milk for 30 min at 4 °C with gentle rocking. It was immunoblotted with primary antibodies against MyH3, MyoG, ANXA2, CLMP, Cyc1, and SDHB, as well as α-Tubulin, as an internal control, overnight at 4 °C with gentle rocking. Goat anti-Rabbit HRP or goat anti-mouse IgG-HRP was used as secondary antibody. Reaction with secondary antibody proceeded for 30 min at 4 °C with gentle rocking.

[3] = Cell viability assay (MTT); settings: mouse, c2c12 cells
Procedure: The effects of the drugs on the C2C12 cell viability were tested by MTT (Thiazolyl Blue Tetrazolium Bromide) assay. 1×10^4 cells were seeded per well in a 96-well plate in 100 µL growth media. After one day of cell seeding, the cells were treated with different concentrations of the drugs dissolved in 0.1 % DMSO and 100 µL of the media for one day. After the treatment period, 5 mg/ml MTT (M2128, Sigma-Aldrich) solution in PBS (10 µL) was added to each well. After one hour, the MTT solution and all media were removed from the wells. 100 µl of DMSO was added and mixed to dissolve the formazan crystals. Cell viability was analysed by measuring the absorbance of the dissolved formazan at a wavelength of 570 nm with a microplate reader (Hidex Sense Beta Plus).

ubiquitinated proteins = settings: mice, Sakai et al. [39]; cited from earlier work
[4] = tested on: C2-ceramide treated C2C12 cell line; assay: In vitro sarcopenia model (Example 2): Western blot of target genes and myogenic markers; format: cell-based, mouse
From the text: C2-ceramide ([…], Sigma Aldrich) was used for inducing sarcopenia in the C2C12 cell line. […] Then, the medium was changed twice, at two-day intervals, with a differentiation medium (DMEM with 2% FBS and 1% P/S) to differentiate myoblasts into myotubes. Because C2-ceramide may affect mitochondrial activity in muscle cells, another cell model was created without introducing ceramide. After completion of myotube differentiation, cells were harvested for western blot analysis. […] The cell lysates were centrifuged at 12.000 rpm for 10 min and supernatants were collected. Protein Assay Dye Reagent (5000006, Bio-Rad) was used for the determination of protein concentration. The absorbance of the proteins was measured spectrophotometrically at 595 nm by a microplate reader (Hidex Sense Beta Plus). […] The membrane was blocked with 5 % skim milk for 30 min at 4 °C with gentle rocking. After blocking, the membrane was treated with primary antibodies: anti-AGL (ab133720, Abcam, UK) anti-PDHX (HPA038484, Human Protein Atlas, Sweden), anti-Myogenin (ab124800, Abcam), anti-Myosin/MyH3 (ab124205, Abcam), anti-Beta actin (ab8227, Abam) as a loading control overnight at 4 °C on a rocking platform. After the treatment of primary antibodies, the membrane was washed three times with TBS-T buffer ([…]-7500-100, Medicago). Then, Goat anti-Rabbit IgG-HRP (ab205718, Abcam) was treated as the secondary antibody for 30 min at 4 °C with gentle rocking.

[5] = selected non-toxic concentration of drug candidate, Fig. 11
[6] = 40 µM ceramide plus drug candidate at selected concentration
[7] = 5 µM, in vitro sarcopenia model
[8] = drug plus ceramide (sarcopenic cells), concentration not given
[9] = 2.5 µM, in vitro sarcopenia model
[10] = 20 µM, in vitro sarcopenia model
[11] = 40 µM ceramide alone versus control, 4 days of differentiation

## CCCCCCCCCC(=O)NC(CN1CCOCC1)C(O)c1ccccc1 (racemic) [DL-PDMP]
C2C12 myoblasts; [5]
  differentiation of myoblasts to myotubes: highly differentiated
[1]; [6]
  effect on myotubes (phenotypic change): Only treatment with withaferin-A improved the myotubes

## OCCCNc1cc(-c2ccnc(Nc3cccc(Cl)c3)n2)ccn1 [CGP-60474]
C2C12 myoblasts; [5]
  differentiation of myoblasts to myotubes: highly differentiated
[1]; [6]
  effect on myotubes (phenotypic change): Only treatment with withaferin-A improved the myotubes

## Nc1[nH]nc2nnc(-c3c(-c4ccccc4)nn4ccccc34)cc12 [FR-180204]
[2]; [7]
  Cyc1 expression: significantly increased
  MyH3 expression: significantly increased
  MyoG expression: significantly increased
[2]; [8]
  expression level of CYC1: significantly increase
  expression level of MyH3: significantly increase
  expression level of MyoG: significantly increase
C2C12 myoblasts
  ability to facilitate myotube differentiation without the presence of ceramide: exhibited the ability to facilitate myotube differentiation
  ability to improve the myotube fusion in healthy muscle myoblasts: ability to improve the myotube fusion
[1]; [6]
  effect on myotubes (phenotypic change): promising effect in enhancing myotube cells

## CC(C)C[C@@H](C=O)NC(=O)[C@H](CC(C)C)NC(=O)[C@H](CC(C)C)NC(=O)OCc1ccccc1 [MG-132] (Cbz-Leu-Leu-Leu-aldehyde)
[3]
  MNTC at 24 h: 25 nM
Ubiquitinated proteins
  expression levels of ubiquitinated proteins in atrophic muscle cells: downregulation
[4]; sarcopenic cells
  expression levels of MyH3: significantly increase
  expression levels of MyoG: significantly increase
[4]; sarcopenic cells, compared to the in vitro sarcopenia model
  expression of myogenic markers: increased
[4]; selected non-toxic optimal dose, in vitro sarcopenia model
  expression of AGL: enhanced; also recorded: significantly increase

## Cc1ccc(CNc2ncnc3ccc(-c4ccc(CO)o4)cc23)o1 [ML-167]
[2]; [9]
  Cyc1 expression: notable upregulation
  MyH3 expression: notable upregulation
  MyoG expression: notable upregulation
[2]; [7]
  Cyc1 expression: notable upregulation
  MyH3 expression: notable upregulation
  MyoG expression: notable upregulation
[2]; [8]
  expression level of CYC1: significantly increase
  expression level of MyH3: significantly increase
  expression level of MyoG: significantly increase
C2C12 myoblasts
  ability to facilitate myotube differentiation without the presence of ceramide: exhibited the ability to facilitate myotube differentiation
  ability to improve the myotube fusion in healthy muscle myoblasts: ability to improve the myotube fusion
[1]; [6]
  effect on myotubes (phenotypic change): promising effect in enhancing myotube cells

## O=C1c2c(O)ccc(O)c2C(=O)c2c(NCCNCCO)ccc(NCCNCCO)c21 [Mitoxantrone]
C2C12 myoblasts; [5]
  differentiation of myoblasts to myotubes: less differentiated

## Cc1ccc([N+](=O)[O-])cc1S(=O)(=O)N(C)/N=C/c1cnc2ccc(Br)cn12 [PIK-75]
C2C12 myoblasts; [5]
  differentiation of myoblasts to myotubes: highly differentiated
[1]; [6]
  effect on myotubes (phenotypic change): Only treatment with withaferin-A improved the myotubes

## CC1=C(CO)C(=O)OC(C(C)C2CCC3C4CC5OC56C(O)C=CC(=O)C6(C)C4CCC23C)C1 (centres unmarked) [Withaferin-A, withaferin-A]
[3]
  MNTC at 24 h: 50 nM
[2]; [8]
  expression level of CYC1: activating effect
  expression level of MyH3: increase; also recorded: expressed as much as control samples
  expression level of MyoG: increase
[2]; drug plus ceramide, concentration not given
  expression level of ANXA2: inhibitory effect; also recorded: decreased
C2C12 myoblasts; [5]
  differentiation of myoblasts to myotubes: highly differentiated
[1]; [6]
  effect on myotubes (phenotypic change): improved the myotubes similarly to the control sample
[1]
  MyH3 intensity compared to the control group: no statistical difference

## COC[C@H]1OC(=O)c2coc3c2[C@@]1(C)C1=C(C3=O)[C@@H]2CCC(=O)[C@@]2(C)C[C@H]1OC(C)=O [Wortmannin]
C2C12 myoblasts
  differentiation of myoblasts to myotubes: moderately differentiated
[1]
  effect on myotubes (phenotypic change): Only treatment with withaferin-A improved the myotubes

## CN(C)CCOC(c1ccc(Cl)cc1)c1ccccn1 (centres unmarked) [carbinoxamine]
[2]; [10]
  CYC1 expression: large improvement
  MyH3 expression: increase
  MyoG expression: increase
[2]; [8]
  expression level of CYC1: increase
  expression level of MyH3: increase
  expression level of MyoG: increase
[1]; [6]
  effect on myotubes (phenotypic change): promising effect in enhancing myotube cells

## CCCCCCCCCCCCC/C=C/[C@@H](O)[C@H](CO)NC(C)=O [ceramide, N-acetyl-D-sphingosine]
[2]; [11]
  expression level of MyH3: decreased
  expression level of MyoG: decreased
[2]; ceramide alone versus control
  expression level of ANXA2: increased
[1]; 40 µM ceramide alone, after 4 days of differentiation
  myotube formation: less myotubes were formed
[1]
  MyH3 intensity compared to the control group: significantly deceased; also recorded: significantly decreased

## CC(C)(Oc1ccc(Cl)cc1)C(=O)O [clofibric-acid, clofibric acid]
[3]
  MNTC at 24 h: 5000 nM

## CC(=O)c1c(C)c2cnc(Nc3ccc(N4CCNCC4)cn3)nc2n(C2CCCC2)c1=O [palbociclib]
[3]
  MNTC at 24 h: 5000 nM

## Cc1c(C)c2c(c(C)c1O)CCC(C)(COc1ccc(CC3SC(=O)NC3=O)cc1)O2 (centres unmarked) [troglitazone]
[3]
  MNTC at 24 h: 500 nM
